Laboratory results: US20230102836A1, “Amoebicidal Compositions for Contact Lens Solutions” (University of the West of Scotland, priority 2019, published 2023)
“And” between values parts separate entries of the source, which are not always exact repeats. Equal entries are not always repeated.

Assays:
[1] = system: A. castellanii trophozoites; test: Morphometric analysis of trophozoites; format: cell-based, Acanthamoeba castellanii ATCC 50370
Description: (§1) Acanthamoeba trophozoites ([…]) incubated without (FIG. 2A), with QAC18 at 37.5 μg/ml for 1 h at 25° C. (FIG. 2B), and 0.5% SDS for 30 min (FIG. 2C). QAC18 reduced trophozoites sizes from 29.02±0.23 (FIG. 2A) to 7.87 f 0.93 (FIG. 2B) which disintegrated after 30 min treatment with SDS (FIG. 2C).
A. castellanii trophozoites incubated with and without QAC for a duration determined by experimental protocol were examined microscopically and their sizes measured using the Open Laboratory (Improvision) calibration graticule. The mean body sizes were determined.

[2] = system: A. castellanii trophozoites; test: SDS disintegration of QAC-treated trophozoites; format: cell-based, Acanthamoeba castellanii ATCC 50370; conditions: QAC18-treated, 0.5% SDS for 30 min
Description: as §1
(§2) Acanthamoeba castellanii ATCC 50370 trophozoites and cysts were cultured in Peptone Glucose (PG) medium and encystment medium (Chagla A H, Griffiths A J (1974) Microbiology: 85(1): 139-145) respectively at 25° C. Cysts were prepared by incubating trophozoites for 8 days in encystment medium and integrity validated with calcofluor (0.25 μg/ml) assay (Gatti S et al (2010) J. Med. Microbiol.; 59: 1324-1330) or sodium dodecyl sulfate (SDS, 0.5% w/v) disintegration assay (Dudley R et al (2005) Acta Trop.; 9: 100-8) and microscopic observation.

[3] = system: A. castellanii trophozoites; test: DNA-agarose gel electrophoresis of gDNA of treated trophozoites; format: cell-based, Acanthamoeba castellanii; conditions: 18.75 μg/ml after 96 h
Description: (§3) Genomic deoxynucleic acids (gDNA) from 10^8 A. castellanii trophozoites (treated with and without QAC) were extracted from cells harvested by centrifugation (850×g, 10 min), lysed with UNSET buffer (8M urea, 150 μM NaCl, 2% SDS, […] ethylenediaminetetraacetic acid (EDTA), […] Tris-HCl, pH 7.5) and the DNA extracted with phenol-chloroform (1:1 v/v). The biphasic suspension with DNA enriched on the […] was centrifuged (12,000×g for 15 min, 4° C.) for clear separation and transferred to a new microcentrifuge tube. The DNA was precipitated with cold ethanol (100%, v/v) and 0.3M sodium acetate, washed twice with 70% (v/v) ethanol (12,000×g for 10 min, 4° C.), air dried and resuspended in distilled water.

[4] = system: gDNA from A. castellanii; test: QAC-DNA interaction assay; format: binding, Acanthamoeba castellanii; conditions: DNA:QAC ratios 1:0, 1:1, 1:10, 1:20; 15 min
Description: FIGS. 3A and 3B show the QAC-DNA interaction. The absorbance of genomic DNA (0.6 ng/ml) extracted from A. castellani trophozoites measured at 260 nm with the Nanodrop after incubating for 15 minutes with 0 ng/ml, 0.6 ng/ml, 6 ng/ml or 12 ng/ml of QAC12 (FIG. 3A) or QAC16 (FIG. 3B) to give ratios of 1:0, 1:1, 1:10 and 1:20. DNA absorbance increased and decreased with increased […] and [QAC12] respectively. Data is mean absorbance at 260 nm±SD; n=4 independent experiments performed in triplicates.
as §3, with “water. […]” for “water.”

[5] = system: A. castellanii trophozoites; test: Combined assay with fixed QAC12 (alamarBlue); format: cell-based, Acanthamoeba castellanii ATCC 50370; conditions: Acanthamoeba castellanii, 96 h, 96 h at 25° C.
Description: Acanthamoeba trophozoites (10^5 cells/ml. n=5/treatment) treated with 100 μg/ml doubly diluted to 0.06 μg/ml of QAC18 (a,b) or APC16 (c,d) for 96 h at 25° C. […] Similarly. APC16 alone at the same concentration (closed circle, FIG. 6C, FIG. 6D) in combination with QAC12 at 18.75 μg/ml (open squares, d) QAC12 at […] (open squares, FIG. 6C). Data are mean absorbance at 595 nm t SD; n=4 independent experiments performed in triplicates. IC50s were not statistically significant between QAC12 at both concentrations and QAC16 (p>0.05, FIG. 6A, FIG. 6B) but significant with APC16 (p<0.05, FIG. 6C, FIG. 6D).
For the combined assay, similar concentrations of QAC18 and APC16 were prepared and 18.75 μg/ml and 37.5 μg/ml of QAC12 added (to a final volume of 100 μl) were added to 10^5 cells/mi in a 96-well plate and later incubated at 25° C. for a duration determined by the experimental protocol. Resazurin (7-Hydroxy-31-phenoxazin-3-one 10-oxide; 5 mg/ml; McBride J et al (2005) J. Clin. Microbiol.; 43: 629-634) and trypan blue (0.4 μg/ml; Mafra C S P et al (2013) Investig. Ophthalmol. Vis. Si.; 54: 6363-6372) were then added to trophozoites and cysts respectively after being exposed to the compounds and the cell viability estimated microscopically and from changes in absorbance (at 595 nm and 570 nm) respectively.

[6] = system: A. castellanii trophozoites; test: Cytotoxicity assay on trophozoites (resazurin / alamarBlue); format: cell-based, Acanthamoeba castellanii ATCC 50370; conditions: Acanthamoeba castellanii; Table 2; read-out: IC50 A. castellanii trophozoites
Description: as §2
The compounds used in this study all contained alkyl-carbon chains: three APCs [dodecyl-PC (APC12), tetradecyl-PC. (APC14) and hexadecyl-PC (APC16)] (Anatrace) and four QACs [docdecyl-TMAB (QAC12), tetradecyl-TMAB (QAC14), hexadecyl-TMAB (QAC16) and octadecyl-TMAB (QAC18)](Sigma). All were prepared to a stock concentration of 1 mg/ml and diluted as required by the experimental protocol in the cytotoxicity assays. […]
[…] Resazurin (7-Hydroxy-31-phenoxazin-3-one 10-oxide; 5 mg/ml; McBride J et al (2005) J. Clin. Microbiol.; 43: 629-634) and trypan blue (0.4 μg/ml; Mafra C S P et al (2013) Investig. Ophthalmol. Vis. Si.; 54: 6363-6372) were then added to trophozoites and cysts respectively after being exposed to the compounds and the cell viability estimated microscopically and from changes in absorbance (at 595 nm and 570 nm) respectively.
Efficacy was expressed as a percentage of untreated controls for each drug concentration used and the data used to calculate the IC50. Cell density was estimated using the modified Neubaur hemocytometer and expressed as cells/ml.

CCCCCCCCCCCCCCCCCC[N+](C)(C)C.[Br-] [QAC18, octadecyltrimethyl ammonium bromide]
Reduction in trophozoite size relative to untreated [1]: 4 fold
Trophozoite size after treatment ([1]; 37.5 μg/ml for 1 h at 25° C. (FIG. 2B)): 7.87
Trophozoite size after treatment ([1]; QAC18-treated trophozoites (FIG. 2B)): 7.87±0.93 μm
Disintegration of shrunk treated trophozoites by 0.5% SDS [2]: 92%
Fragmented DNA profile that depicts death via apoptosis [3]: not observed
Change of gDNA absorbance at 260 nm with increasing QAC [4]: progressively increased absorbance
IC50 ([5]; QAC12 fixed at 18.75 μg/ml, read-out: Estimated IC50 of QAC18 in combination with QAC12): 6.7 µg/mL
IC50 ([5]; QAC12 fixed at 37.5 μg/ml, read-out: Estimated IC50 of QAC18 in combination with QAC12): 6.9 µg/mL
IC50 ([5]; without QAC12, read-out: Estimated IC50 of QAC18 alone): 6.1 µg/mL
IC50 [6]: 1.06 µg/mL and 3 µM
